Measurements from patent US9624200B2, “Therapeutic piperazines” (DART NEUROSCIENCE (CAYMAN) LTD., priority 2006, dated 2017).

What was measured:
[1] = system: contextual memory (freezing) in C57BL/6 male mice; test: Contextual Memory Assay: Fear Conditioning; format: in vivo, mouse; conditions: for freezing (memory score) 24 hours after training: 2 training trials, vehicle 22.3+3.2%
Excerpt: Contextual memory is a form of Pavlovian fear conditioning in which a naive mouse is placed into a novel chamber (context) containing distinct visual, olfactory and tactile cues. After several minutes of acclimation, the mouse receives a brief, mild electric shock to its feet. From this negative experience, the mouse will remember for months that that chamber is dangerous. When placed back into the same context at some later time after training, the mouse's natural response to danger is to “freeze,” sitting stone still for many seconds. This is similar to what happens to humans when they experience fear. The percent of time during an observation period that the mouse spends frozen represents a quantitative measure (memory score) of its memory of the context.
Young-adult (10-12 weeks old) C57BL/6 male mice and Sprague Dawley male rats of 250-300 g (Taconic, N.Y.) were used. Mice were group-housed (5 mice) in standard laboratory cages while rats were housed in pairs and maintained on a 12:12 light-dark cycle. The experiments were always conducted during the light phase of the cycle. With the exception of testing times, the mice had ad lib access to food and water. […]
To assess contextual memory, a modified contextual fear conditioning task originally developed for evaluation of memory in CREB knock-out mice was used (Bourtchouladze, et. aL, Cell, 1994, 79, 59-68). […] 24 hours after training, the mouse was placed into the same training chamber and contextual memory was assessed by scoring freezing behavior (‘freezing’ serves as memory score). […]
All experiments were designed and performed in a balanced fashion, meaning that (i) for each experimental condition (e.g. a specific dose-effect) an equal number of experimental and control mice was used; (ii) each experimental condition was replicated 2-3 independent times, and replicate days were added to generate final number of subjects. […] Data were analyzed by Student's unpaired t test using a software package (Statview 5.0.1; SAS Institute, Inc). All values in the text and figures are expressed as mean+SEM. […]

[2] = system: PDE4 from human U-937 cells; test: PDE4 Inhibition Assay; format: biochemical; conditions: 1 μM cAMP, [3H]-cAMP, read-out: Potency Class (Inhibitory Concentration) in the PDE4 assay
How it was run: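 U-937-derived PDE4 (2 μg/ml) was preincubated with compound in Tris-HCl pH 7.5 for 15 min at 25° C. It then reacted 20 min with cAMP plus [^3H]-cAMP. [^3H]-AMP was converted to [^3H]-adenosine by nucleotidase, resin-separated and counted; IC50 came from percent inhibition.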

SMILES | IC50 [2] [nM] | other results
COc1ccc(N2CCN[C@@H](CC3CCCCC3)C2)cc1OC1CCCC1 [Compound 126, (S)-3-Cyclohexylmethyl-1-(3-cyclopentyloxy-4-methoxy-phenyl)-piperazine] | – | effect on contextual memory ([1]; 0.1 mg/kg injected 20 minutes before training): no significant effect; freezing (memory score) 24 hours after training ([1]; 1 mg/kg injected 20 minutes before training, p<0.05): 32.5+3.2%; freezing (memory score) 24 hours after training ([1]; 10 mg injected 20 minutes before training, p<0.005): 38.3%
CCc1nn(C(C)C)c2cc(N3CCN(C(=O)CC(N)=O)[C@@H](Cc4ccccc4)C3)ccc12 [Compound 382, (S)-3-(2-benzyl-4-(3-ethyl-1-isopropyl-1H-indazol-6-yl)piperazin-1-yl)-3-oxopropanamide] | > 1000 | –
CCc1nn(C(C)C)c2cc(N3CCN(CC(N)=O)[C@@H](Cc4ccccc4)C3)ccc12 [Compound 383, (S)-2-(2-benzyl-4-(3-ethyl-1-isopropyl-1H-indazol-6-yl)piperazin-1-yl)acetamide] | > 1000 | –
COc1ccc(N2CCN(C(=O)Cc3ccccn3)[C@@H](Cc3ccccc3)C2)cc1OC1CCCC1 [Compound 384, (S)-1-(2-benzyl-4-(3-(cyclopentyloxy)-4-methoxyphenyl)piperazin-1-yl)-2-(pyridin-2-yl)ethanone] | < 200 | –
COc1ccc(N2CCN(C(=O)Cc3cccnc3)[C@@H](Cc3ccccc3)C2)cc1OC1CCCC1 [Compound 385, (S)-1-(2-benzyl-4-(3-(cyclopentyloxy)-4-methoxyphenyl)piperazin-1-yl)-2-(pyridin-3-yl)ethanone] | < 200 | –
COc1ccc(N2CCN(C(=O)Cc3ccncc3)[C@@H](Cc3ccccc3)C2)cc1OC1CCCC1 [Compound 386, (S)-1-(2-benzyl-4-(3-(cyclopentyloxy)-4-methoxyphenyl)piperazin-1-yl)-2-(pyridin-4-yl)ethanone] | > 1000 | –
COc1ccc(N2CCN(C(=O)Cc3cnccn3)[C@@H](Cc3ccccc3)C2)cc1OC1CCCC1 [Compound 387, (S)-1-(2-benzyl-4-(3-(cyclopentyloxy)-4-methoxyphenyl)piperazin-1-yl)-2-(pyrazin-2-yl)ethanone] | 200 to 1000 | –
COc1ccc(N2CCN(C(=O)Cc3ncccn3)[C@@H](Cc3ccccc3)C2)cc1OC1CCCC1 [Compound 388, (S)-1-(2-benzyl-4-(3-(cyclopentyloxy)-4-methoxyphenyl)piperazin-1-yl)-2-(pyrimidin-2-yl)ethanone] | < 200 | –
